Results reported in US11090319B2, “Therapeutic uses of pharmaceutical compositions comprising cyclic boronic acid ester derivatives” (Melinta Subsidiary Corp., priority 2010, dated 2021).
Like-named read-outs stand apart in the source and are kept apart here.

Legend:
[1] = test system: KP1011 Klebsiella pneumoniae SHV-5; assay: microbe, parasite or virus in culture; format: cell-based; details: derivative at 10 μg/mL; KP1011 SHV-5
Experimental: (§1) Next, ceftazidime potentiation activity of several cyclic boronic acid ester derivatives was tested using a larger panel of strains expressing β-lactamase hydrolyzing enzymes. Ceftazidime MICs were determined alone and in the presence of fixed concentrations of various cyclic boronic acid ester derivatives.

SHV-2, lysate of ec306 = SHV-2, lysate of ec306 (Escherichia coli, UniProt P0A9Z7); assay: Inhibition of ceftazidime hydrolysis by bacterial lysate
OXA-10, lysate of KP1007 = OXA-10, lysate of KP1007 (Pseudomonas aeruginosa, UniProt P14489); assay: as above
[2] = test system: AB1052 Acinetobacter baumannii OXA-24; assay: Checkerboard assay, biapenem potentiation; details: Biapenem MIC 8-fold; AB1052 OXA-24 class D
[3] = target: various β-lactamases (bacterial lysates) (Salmonella typhimurium, UniProt P0A1V8); assay: biochemical; format: biochemical; details: AZT IC50 KPX1001 OXA-2
[4] = target: various β-lactamases (bacterial lysates) (Escherichia coli, UniProt A0A649V088); assay: biochemical; format: biochemical; details: read-out: AZT IC50 KP1005 CTX-M-14
[5] = target: various β-lactamases (bacterial lysates) (Escherichia coli, UniProt A0A5R8T042); assay: biochemical; format: biochemical; details: read-out: AZT IC50 KP1009 CTX-M-15
[6] = target: various β-lactamases (bacterial lysates) (Pseudomonas aeruginosa, UniProt P14489); assay: biochemical; format: biochemical; details: AZT IC50 KP1007 OXA-10
[7] = target: various β-lactamases (bacterial lysates) (Klebsiella pneumoniae, UniProt Q9F663, H272Y); assay: biochemical; format: biochemical
[8] = target: various β-lactamases (bacterial lysates) (Klebsiella pneumoniae, UniProt Q9F663); assay: biochemical; format: biochemical; details: aztreonam cleavage
SHV-18, lysate of KP1012 = SHV-18, lysate of KP1012 (Klebsiella pneumoniae, UniProt P0AD64, E235K/G234A/R39S); assay: Inhibition of ceftazidime hydrolysis by bacterial lysate
[9] = target: CTX-M-14, lysate of KP1005 (Escherichia coli, UniProt Q9L5C7); assay: as above
DHA-1, lysate of EC1014 = DHA-1, lysate of EC1014 (Escherichia coli, UniProt Q84AE0); assay: as above; details: read-out: IC50 of inhibition of Ceftazidime hydrolysis; EC1014 DHA-1
[10] = test system: KP1013 Klebsiella pneumoniae CMY-2; assay: Ceftazidime MIC with fixed concentration of BLI; format: cell-based; details: derivative at 10 μg/mL; KP1013 CMY-2
Experimental: as §1

[11] = test system: AB1052 Acinetobacter baumannii OXA-24; assay: Ceftazidime MIC with fixed concentration of BLI; format: cell-based; details: derivative at 10 μg/mL; AB1052 OXA-24
Experimental: as §1

[12] = test system: ECL1003 Enterobacter cloacae Hyper AmpC expression; assay: Ceftazidime MIC with fixed concentration of BLI; format: cell-based; details: derivative at 10 μg/mL
Experimental: as §1

[13] = test system: EC1011 Escherichia coli TEM-26; assay: Ceftazidime MIC with fixed concentration of BLI; format: cell-based; details: derivative at 10 μg/mL; EC1011 TEM-26
Experimental: as §1

[14] = test system: EC1016 Escherichia coli FOX-5; assay: Ceftazidime MIC with fixed concentration of BLI; format: cell-based; details: derivative at 10 μg/mL; EC1016 FOX-5
Experimental: as §1

[15] = test system: KP1006 Klebsiella pneumoniae CTX-M2; assay: Ceftazidime MIC with fixed concentration of BLI; format: cell-based; details: derivative at 10 μg/mL
Experimental: as §1

[16] = test system: AB1057 Acinetobacter baumannii OXA-58; assay: Ceftazidime MIC with fixed concentration of BLI; format: cell-based; details: derivative at 10 μg/mL; AB1057 OXA-58
Experimental: as §1

SA1000 Salmonella CMY-2 = assay: Ceftazidime MIC with fixed concentration of BLI; format: cell-based; details: derivative at 10 μg/mL; SA1000 CMY-2
Experimental: as §1

[17] = test system: KP1014 Klebsiella pneumoniae Vim-1; assay: Ceftazidime MIC with fixed concentration of BLI; format: cell-based; details: derivative at 10 μg/mL; KP1014 Vim-1
Experimental: as §1

[18] = test system: CF1001 Citrobacter freundii Hyper AmpC expression; assay: Ceftazidime MIC with fixed concentration of BLI; format: cell-based; details: derivative at 10 μg/mL
Experimental: as §1

KPC-2, lysate of KP1008 = KPC-2, lysate of KP1008 (Klebsiella pneumoniae, UniProt Q9F663); assay: Inhibition of ceftazidime hydrolysis by bacterial lysate
SME-2, lysate of SM1000 = SME-2, lysate of SM1000 (Serratia marcescens, UniProt P52682); assay: Inhibition of biapenem hydrolysis by bacterial lysate; details: read-out: IC50 of inhibition of biapenem hydrolysis; SM1000 SME-2
GES-1, lysate of pa 1063 = GES-1, lysate of pa 1063 (Klebsiella pneumoniae, UniProt Q9KJY7); assay: Inhibition of ceftazidime hydrolysis by bacterial lysate
[19] = test system: SM1000 Serratia marcescens SME-2; assay: Checkerboard assay, biapenem potentiation; details: Biapenem MIC 8-fold; SM1000 SME-2 class A
SHV-5, lysate of ec308 = SHV-5, lysate of ec308 (Escherichia coli, UniProt P0AD63, E235K/G234S); assay: Inhibition of ceftazidime hydrolysis by bacterial lysate
KPC-2, lysate of KP1004 = KPC-2, lysate of KP1004 (Klebsiella pneumoniae, UniProt Q9F663); assay: as above
[20] = lysate KP1004 KPC-2, read-out: AZT IC50 KP1004 KPC-2 (converted)
[21] = lysate KP1008 KPC-2, read-out: AZT IC50 KP1008 KPC-2

Chain of various β-lactamases (bacterial lysates) (Escherichia coli, UniProt A0A5R8T042) (A0A5R8T042 29-291): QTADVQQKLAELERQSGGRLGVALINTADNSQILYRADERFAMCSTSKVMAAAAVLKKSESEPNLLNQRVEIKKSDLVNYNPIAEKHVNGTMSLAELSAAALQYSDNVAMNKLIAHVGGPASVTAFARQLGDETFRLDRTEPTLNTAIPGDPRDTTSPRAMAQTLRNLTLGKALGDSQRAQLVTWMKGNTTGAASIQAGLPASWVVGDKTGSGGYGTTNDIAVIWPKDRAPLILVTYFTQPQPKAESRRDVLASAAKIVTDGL

With O=C(O)CC1CC[C@H](NC(=O)C2CC2)B(O)O1 (stereo partly drawn) [Compound 4, 2-((3R)-3-(cyclopropanecarboxamido)-2-hydroxy-1,2-oxaborinan-6-yl)acetic acid] the “Ceftazidime MIC with cyclic boronic acid ester derivative” value (shortened to “Ceftazidime MIC”) [1] was “X (MIC of 1 μg/mL or less)”, the IC50 (SHV-2, lysate of ec306) was greater than 4150 nM and the IC50 (OXA-10, lysate of KP1007) was greater than 4150 nM. The MPC8 [2] was “Z (MPC8 of greater than 1 μg/mL)”, the IC50 [3] was greater than 8300 nM and the IC50 [4] was less than 2070 nM. The IC50 [5] was 2070 to 8300 nM, the IC50 [6] was greater than 8300 nM and the IC50 [7] was less than 2070 nM. For the same compound, the IC50 [8, 20] was less than 2070 nM, the IC50 [8, 21] was less than 2070 nM and the IC50 (SHV-18, lysate of KP1012) was greater than 4150 nM. For the same compound, the IC50 [9] was greater than 4150 nM, the IC50 (DHA-1, lysate of EC1014) was greater than 4150 nM and the “Ceftazidime MIC” value [10] was “Y (MIC of greater than 1 μg/mL to 8 μg/mL)”. For the same compound, the “Ceftazidime MIC” value [11] was “Z (MIC of greater than 8 μg/mL)”, the “Ceftazidime MIC” value [12] was “Z (MIC of greater than 8 μg/mL)” and the “Ceftazidime MIC” value [13] was “Z (MIC of greater than 8 μg/mL)”. The “Ceftazidime MIC” value [14] was “Z (MIC of greater than 8 μg/mL)”, the “Ceftazidime MIC” value [15] was “X (MIC of 1 μg/mL or less)” and the “Ceftazidime MIC” value [16] was “Z (MIC of greater than 8 μg/mL)”. The “Ceftazidime MIC” value (SA1000 Salmonella CMY-2) was “Y (MIC of greater than 1 μg/mL to 8 μg/mL)”, the “Ceftazidime MIC” value [17] was “Z (MIC of greater than 8 μg/mL)” and the “Ceftazidime MIC” value [18] was “Z (MIC of greater than 8 μg/mL)”. It also gave an IC50 (KPC-2, lysate of KP1008) of less than 415 nM, an IC50 (SME-2, lysate of SM1000) of 415 to 4150 nM and an IC50 (GES-1, lysate of pa 1063) of 415 to 4150 nM. For the same compound, the MPC8 [19] was “X (MPC8 of less than 0.16 μg/mL)”, the IC50 (SHV-5, lysate of ec308) was greater than 4150 nM and the IC50 (KPC-2, lysate of KP1004) was less than 415 nM.
O=C(O)C[C@@H]1CC[C@H](NC(=O)Cc2ccccc2)B(O)O1 [Compound 6, 2-((3R,6S)-2-hydroxy-3-(2-phenylacetamido)-1,2-oxaborinan-6-yl)acetic acid] was tested, and the “Ceftazidime MIC” value [1] was “X (MIC of 1 μg/mL or less)”, the IC50 (SHV-2, lysate of ec306) was 344 to 3440 nM and the IC50 (OXA-10, lysate of KP1007) was greater than 3440 nM. For the same compound, the MPC8 [2] was “Z (MPC8 of greater than 1 μg/mL)”, the IC50 [3] was 1720 to 6870 nM and the IC50 [4] was less than 1720 nM. It also gave an IC50 [5] of less than 1720 nM, an IC50 [6] greater than 6870 nM and an IC50 [7] of less than 1720 nM. For the same compound, the IC50 [8, 20] was less than 1720 nM, the IC50 [8, 21] was less than 1720 nM and the IC50 (SHV-18, lysate of KP1012) was 344 to 3440 nM. For the same compound, the IC50 [9] was 344 to 3440 nM, the IC50 (DHA-1, lysate of EC1014) was greater than 3440 nM and the “Ceftazidime MIC” value [10] was “Y (MIC of greater than 1 μg/mL to 8 μg/mL)”. The “Ceftazidime MIC” value [11] was “Z (MIC of greater than 8 μg/mL)”, the “Ceftazidime MIC” value [12] was “Z (MIC of greater than 8 μg/mL)” and the “Ceftazidime MIC” value [13] was “Z (MIC of greater than 8 μg/mL)”. For the same compound, the “Ceftazidime MIC” value [14] was “Z (MIC of greater than 8 μg/mL)”, the “Ceftazidime MIC” value [15] was “X (MIC of 1 μg/mL or less)” and the “Ceftazidime MIC” value [16] was “Z (MIC of greater than 8 μg/mL)”. The “Ceftazidime MIC” value (SA1000 Salmonella CMY-2) was “X (MIC of 1 μg/mL or less)”, the “Ceftazidime MIC” value [17] was “Z (MIC of greater than 8 μg/mL)” and the “Ceftazidime MIC” value [18] was “Y (MIC of greater than 1 μg/mL to 8 μg/mL)”. The IC50 (KPC-2, lysate of KP1008) was less than 344 nM, the IC50 (SME-2, lysate of SM1000) was 344 to 3440 nM and the IC50 (GES-1, lysate of pa 1063) was 344 to 3440 nM. The MPC8 [19] was “Y (MPC8 of 0.16 μg/mL to 1 μg/mL)”, the IC50 (SHV-5, lysate of ec308) was greater than 3440 nM and the IC50 (KPC-2, lysate of KP1004) was less than 344 nM.
